Reference: publication PMC11206507, “Unraveling the Impact of Six Pentacyclic Triterpenes Regulating Metabolic Pathways on Lung Carcinoma Cells” (Pharmaceuticals, 2024)
“Also recorded” adds a separate entry of the source. Like-named read-outs stand apart in the source and are kept apart here.

What was measured:
NSCLC A549 cells [1] = assay: MTS/PMS cell viability, A549; type: cell-based, human; conditions: for TI > 1: summary, MRC5 vs A549; on TI > 1: key: '✔' means induction; '-' means non-induction of any of the tested processes
Description: A similar procedure was performed to determine the IC50 of the triterpenes in a normal lung fibroblast cell line (MRC5). In brief, the A549 and MRC5 cells were seeded into 96-well plates at a density of 1 × 10^5 cells/mL in supplemented DMEM medium. […] Then, 10 uL of the MTS reagent from the CellTiter 96® Aqueous Non-Radioactive Cell Proliferation Assay (Promega G5421) was added to each well. Then, we incubated the plates at 37 °C and in a 5% CO2 atmosphere for 1 h. After incubation, the absorbance was measured at 492 nm (n = 8) in a microplate reader spectrophotometer (Thermoscientific Multiskan FC). The cell viability was calculated as follows:% Viability = (sample absorbance − sample media absorbance)/(untreated cells’ absorbance − untreated cells’ media absorbance) × 100
(§1) The cell viability data were presented by plotting the values with an average of eight measurements for each treatment (mean ± SD) in at least three independent experiments. The IC50 values were calculated with the GraphPad Prism 9 software (Prism 9; GraphPad by Dotmatics, San Diego, CA, USA) using the dose–response curve.

[2] = MTS/PMS cell viability, MRC5; type: cell-based; conditions: human, MRC5 normal lung fibroblast cells
Description: The 50% inhibitory concentration (IC50) of some of these triterpenes in A549 NSCLC cells were previously determined by us. A similar procedure was performed to determine the IC50 of the triterpenes in a normal lung fibroblast cell line (MRC5). In brief, the A549 and MRC5 cells were seeded into 96-well plates at a density of 1 × 10^5 cells/mL in supplemented DMEM medium. The cells were treated with specific concentrations (A549: 5, 10, 25, 50, 75, 100, 125,150, 175, 200 μM; MRC5: 5, 10, 25, 50, 75, 100 μM) of the triterpenes and incubated for 24 h. Then, 10 uL of the MTS reagent from the CellTiter 96® Aqueous Non-Radioactive Cell Proliferation Assay (Promega G5421) was added to each well. Then, we incubated the plates at 37 °C and in a 5% CO2 atmosphere for 1 h. After incubation, the absorbance was measured at 492 nm (n = 8) in a microplate reader spectrophotometer (Thermoscientific Multiskan FC). The cell viability was calculated as follows:% Viability = (sample absorbance − sample media absorbance)/(untreated cells’ absorbance − untreated cells’ media absorbance) × 100
as §1, with “curve. The data were normalized by the non-linear fit of the log (drug inhibition) vs. normalized response variable slope to obtain the best fit IC50 and R-squared values.” for “curve.”

MAPK/PI3K = MAPK/PI3K protein expression (dual pathway activation kit, flow cytometry); type: cell-based, human; conditions: for MAPK/PI3K expression (in words): A549, IC25, 24 h, vs untreated cells; for MAPK/PI3K inhibition: summary, NSCLC A549 cells; on MAPK/PI3K inhibition: key: '✔' means induction; '-' means non-induction of any of the tested processes
Description: We used flow cytometry to analyze several cellular mechanistic pathways in A549 cells after incubation with the triterpenes. In general, the cells were seeded in a 6-well plate at a density of 1 × 10^6 cells/mL and incubated for 24 h in supplemented DMEM. After 24 h, the A549 cells were treated with the triterpenes, following each manufacturer’s protocol. All of the following experiments were performed in a Muse® Cell Analyzer (EMD Millipore Corporation, Temecula, CA). The instrument was calibrated before each assay using the Muse® System Check Kit (Luminex MCH100101, Luminex Corporation). Each assay was run at least in two independent experiments. For each experiment, all samples were analyzed in triplicate in the instrument and the capillary line was washed after each sample run to avoid artifacts. In addition, to address the issue of cell doublets, we used the Muse® Cell Dispersal Reagent (Luminex Corporation) in all experiments. The concentration of the triterpenes in each assay was selected depending on the cellular concentration necessary to generate the gain signal in the instrument. This means that we attempted to select concentrations avoiding excessive cytotoxicity to accurately determine the respective signal from each assay.
The Muse® P13K/MAPK Dual Pathway Activation Kit (Luminex MCH200108, Luminex Corporation) was used to determine MAPK/PI3K expression. After the incubation treatment with the triterpenes (IC25) for 24 h, the A549 cells were scraped, centrifuged, and washed once with 1× PBS. Next, the fixation buffer was incubated for 10 min and then the permeabilization buffer for another 10 min. Both incubations were performed on ice. Later, the antibody cocktail containing anti-phospho-Akt and anti-phospho-ERK1/2 was incubated for 30 min. Afterward, the cell pellet was washed and suspended in fresh assay buffer for measurement.

NSCLC A549 cells [3] = tested on: NSCLC A549 cells; design: method as in PMID 31338398; conditions: 24 h, MTS/PMS; already obtained by the authors; cited from earlier work
caspase 3 = assay: Caspase 3 activity assay (Apo-ONE Caspase-3/7); type: cell-based, human; conditions: for Caspase 3 activation (in words): A549, IC50, 24 h, vs untreated cells and CisPt
Description: The intrinsic apoptosis activity was evaluated by the quantification of caspase 3 enzymatic activity using the Apo-ONE® Homogeneous Caspase-3/7 Assay (Promega G7792). A549 cells were seeded in a concentration of 1 × 10^5 cells/mL into black 96-well plates with a clear bottom. […] After the completion of the incubation, 50 μL of Apo-ONE® Caspase-3/7 Reagent (1:100 rhodamine 110 bis-(N-CBZ-l-aspartyl-l-glutamyl-l-valyl-aspartic acid amide) (Z-DEVD-R110) substrate diluted in lysis buffer) was added to each well. The plate was gently mixed using a plate shaker at 150 rpm for 2 h at room temperature. Then, the fluorescence of each well was measured (Ex/Em = 485/530 nm) in the Tecan® M200 plate reader.
The caspase 3 activity experiments were performed in triplicate. All data were expressed by plotting the values with an average of three measurements for each treatment condition as the mean ± SD and analyzed with the software GraphPad Prism 9 (San Diego, CA, USA). Statistical analysis was performed using one-way analysis of variance (ANOVA) to compare the mean value of each type of treated cells versus the control (untreated cells). The statistical significance defined by the software for p values was **** < 0.0001, *** from 0.001 to 0.0001, ** from 0.001 to 0.01, * from 0.01 to 0.05, and non-significant (ns) ≥ 0.05.

Structure (SMILES) | TI (NSCLC A549 cells [1]) | TI (NSCLC A549 cells [1]; TI = MRC5 IC50/A549 IC50, >1 means higher selectivity) | IC50 at 24 h [2] [µM] | MAPK/PI3K expression (in words) (MAPK/PI3K) | MAPK/PI3K inhibition (MAPK/PI3K) | IC50 (NSCLC A549 cells [3]) [µM] | IC50 (NSCLC A549 cells [1]; Homo sapiens, A549, 24 h, MTS/PMS) [µM] | TI > 1 (NSCLC A549 cells [1]) | Caspase 3 activation (in words) (caspase 3) | Caspase 3 activation (caspase 3; summary, NSCLC A549 cells)
C=C(C)[C@@H]1CC[C@]2(C(=O)O)CC[C@]3(C)[C@H](CC[C@@H]4[C@@]5(C)CC[C@H](O)C(C)(C)[C@@H]5CC[C@]43C)[C@@H]12 [BeA, betulinic acid] | 1.27 | > 1 | 19 ± 0.4 | did not affect the expression of MAPK/PI3K | - | 15 ± 0.7 |  |  |  | 
C=C(C)[C@@H]1CC[C@]2(CO)CC[C@]3(C)[C@H](CC[C@@H]4[C@@]5(C)CC[C@H](O)C(C)(C)[C@@H]5CC[C@]43C)[C@@H]12 [Betu, betulin] | 0.73 |  | 16 ± 0.5 | slightly inhibit the total expression of MAPK/PI3K |  |  | 22 ± 1 | - | higher caspase 3 activation than CisPt | 
C=C(C)[C@@H]1CC[C@]2(C)CC[C@]3(C)[C@H](CC[C@@H]4[C@@]5(C)CC[C@H](O)C(C)(C)[C@@H]5CC[C@]43C)[C@@H]12 [Lupe, lupeol] | 1.26 |  | 101 ± 8 | did not affect the expression of MAPK/PI3K | - | 80 ± 6 |  |  |  | -
C[C@H]1[C@H](C)CC[C@]2(C(=O)O)CC[C@]3(C)C(=CC[C@@H]4[C@@]5(C)CC[C@H](O)C(C)(C)[C@@H]5CC[C@]43C)[C@H]12 [UrA, ursolic acid] | 0.57 |  | 13 ± 1 | induced the simultaneous expression of MAPK and PI3K | - | 23 ± 1 |  | - | higher caspase 3 activation than CisPt; also recorded: highest | 
